The text below walks through data of ChEMBL document CHEMBL1201862, “PubChem BioAssay data set” (2004).

Test systems include DMS-114; DMS-273; HOP-18; KM-20L2; LXFL 529; M19-MEL; XF498; SNB-78; RXF 631.
Test in all cases: growth of human tumour cells (NCI), 48 h

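Where inhibition never reached the appropriate level, the endpoint shown equals the highest concentration tested. Otherwise, values were interpolated linearly from a five-concentration, 48-hour dose response in 96-well plates. The concentration for 50% growth inhibition is given as GI50.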 Active and inactive are the calls of the source. Cut-off read from the data, not from the text of the source: active = GI50 up to about 1.1 µM and inactive = higher.

Turning to `COC(=O)CCC(=O)N1CC1C` (configuration not stated), the GI50 in the test on DMS-114, in the test with DMS-273, with HOP-18, in the test on KM-20L2, with LXFL 529 and with M19-MEL was > 100 µM (inactive) in each case. Further, the GI50 in the test on XF498 was > 100 µM (inactive).

`CCOC(=O)N1CCC(=O)C[C@@H]1C/C=C/P1(=O)O[C@H](c2ccccc2)C(C)N1C(C)C` (some centres not stated): the GI50 in the test on DMS-114, in the test on DMS-273, in the test on KM-20L2, in the test with LXFL 529, with M19-MEL and in the test on SNB-78 was > 100 µM (inactive) in each case.

For the compound `Cc1c(Cl)cccc1NC(=O)C(=O)C1C(=O)NC(=O)NC1=O`, the GI50 in the test with DMS-273, in the test with HOP-18, in the test with KM-20L2, in the test on LXFL 529, in the test with M19-MEL and with SNB-78 was > 100 µM (inactive) each time. The GI50 in the test with XF498 was > 100 µM (inactive).

For the compound `CS/C(C)=N/OC(=O)NCCCCNc1ccc(N=[N+]=[N-])cc1`, the GI50 in the test with DMS-114 is 13.1 µM (inactive); with HOP-18, > 100 µM (inactive); in the test with KM-20L2, 41.5 µM (inactive); in the test on LXFL 529, 24.1 µM (inactive); in the test on M19-MEL, 34.6 µM (inactive); in the test on RXF 631, 17.4 µM (inactive). The GI50 in the test with SNB-78 is 82.6 µM (inactive); with XF498, 13.8 µM (inactive).

For `C[S+]([O-])c1ccc(COP(N)(=O)N(CCCl)CCCl)cc1` (configuration not stated), the GI50 in the test with DMS-114, with DMS-273, in the test on KM-20L2, with LXFL 529, in the test with M19-MEL and in the test on SNB-78 was > 100 µM (inactive) in each case. Besides, the GI50 in the test with XF498 is > 100 µM (inactive).

Consider `c1ccc2c(CNCCCCCCNCc3cccc4ccccc34)cccc2c1`, for which the GI50 with DMS-114 was 7.45 µM (inactive); in the test with DMS-273, 13.6 µM (inactive); in the test on HOP-18 it was 15.5 µM (inactive); in the test with KM-20L2, 2.61 µM (inactive); with LXFL 529, 1.91 µM (inactive); in the test on M19-MEL it was 4.2 µM (inactive). Besides, the GI50 is 3.74 µM (inactive) in the test with RXF 631, 9.44 µM (inactive) with SNB-78 and 2.42 µM (inactive) in the test on XF498.

For the compound `COCCNC(=O)C1C(=O)N(CCOC)C(=O)/C1=N/N` (configuration not stated), the GI50 in the test on DMS-273, in the test with KM-20L2, in the test with LXFL 529, in the test on M19-MEL, in the test with SNB-78 and in the test on XF498 was > 100 µM (inactive) throughout.

Consider `CCOc1ccc(NC(=O)C(=O)NO)cc1`, for which the GI50 in the test on DMS-114, with DMS-273, with HOP-18, with KM-20L2, in the test with LXFL 529 and in the test with M19-MEL was > 100 µM (inactive) each time. Moreover, the GI50 in the test with SNB-78 is > 100 µM (inactive).

Take `COc1ccc(/C=C2\CCC(C)(CN(C)C)C2=O)cc1Br` (configuration not stated): the GI50 in the test with DMS-114 is 24.4 µM (inactive); with DMS-273, 18.2 µM (inactive); in the test on HOP-18, 28.8 µM (inactive); with KM-20L2, 1.26 µM (inactive); in the test on LXFL 529, 17.9 µM (inactive); in the test with M19-MEL, 17.3 µM (inactive). The GI50 with SNB-78 is 38.1 µM (inactive); with XF498 it was 18.8 µM (inactive).

`BrC12c3ccccc3Sc3ccccc3C1(Br)c1ccccc12` (configuration not stated): the GI50 was 19.5 µM (inactive) in the test with DMS-114; 36 µM (inactive) with DMS-273; 51.5 µM (inactive) in the test on HOP-18; 20.6 µM (inactive) in the test with KM-20L2; 20.9 µM (inactive) in the test on LXFL 529; 35.2 µM (inactive) with M19-MEL. Moreover, the GI50 in the test on RXF 631 was 25.9 µM (inactive).

`Cc1ccc(N2C[N+](c3ccccc3)=NC(c3ccccc3)=N2)cc1`: the GI50 in the test on DMS-114 was 24.4 µM (inactive); in the test on DMS-273 it was 30.3 µM (inactive); with KM-20L2, 56.9 µM (inactive); in the test with LXFL 529 it was 24.8 µM (inactive); with M19-MEL, 28.9 µM (inactive); in the test on SNB-78, > 10 µM (inactive). In addition, the GI50 in the test with XF498 was 43.8 µM (inactive).

As for `CSc1ccc(NC(=O)C2c3[nH]c4ccccc4c3C3CCC(C(C)(C)C)CC3C2C(=O)O)cc1` (configuration not stated), the GI50 was 19.8 µM (inactive) in the test with DMS-114; 16.4 µM (inactive) in the test with DMS-273; 16.9 µM (inactive) in the test on HOP-18; 16.3 µM (inactive) with KM-20L2; 15.9 µM (inactive) in the test with LXFL 529; 21.1 µM (inactive) in the test on M19-MEL. Besides, the GI50 in the test with SNB-78 was 17.2 µM (inactive); in the test with XF498, 17.9 µM (inactive).

For `CC(=O)OC1CCCn2c1nc1c2C(=O)C(C)=C(N2CC2)C1=O` (configuration not stated), the GI50 with DMS-114 was 0.771 µM (active); with DMS-273, 0.15 µM (active); in the test on HOP-18, 0.348 µM (active); with KM-20L2 it was 0.45 µM (active); in the test with LXFL 529, 0.614 µM (active); with M19-MEL it was 0.392 µM (active). In addition, the GI50 in the test with SNB-78 is 0.454 µM (active); with XF498, 0.234 µM (active).

With `N#Cc1cccc(N2C(=O)c3c(c(-c4ccccc4)c(-c4ccc(Sc5ccc(-c6c(-c7ccccc7)c7c(c(-c8ccccc8)c6-c6ccccc6)C(=O)N(c6cccc(C#N)c6)C7=O)cc5)cc4)c(-c4ccccc4)c3-c3ccccc3)C2=O)c1`, the GI50 was 89.5 µM (inactive) with DMS-114; > 100 µM (inactive) in the test on DMS-273; > 100 µM (inactive) in the test on KM-20L2; 37.7 µM (inactive) in the test with LXFL 529; > 100 µM (inactive) with RXF 631; 35.1 µM (inactive) with SNB-78. In addition, in the test with XF498, the GI50 was 30.5 µM (inactive).

For the compound `COc1ccc([C@@H]2CC(=O)N2)cc1`, the GI50 in the test with DMS-114, in the test with DMS-273, in the test with HOP-18, in the test with KM-20L2, in the test with LXFL 529 and in the test with SNB-78 was > 100 µM (inactive) in each case. In addition, in the test with XF498, the GI50 was > 100 µM (inactive).

Consider `CN1CCC(CN2c3ccccc3Sc3ccccc32)CC1`, for which the GI50 was 15.9 µM (inactive) with DMS-114; 13.4 µM (inactive) in the test on DMS-273; 14.3 µM (inactive) in the test with HOP-18; 12.9 µM (inactive) with KM-20L2; 14.4 µM (inactive) with LXFL 529; 13.4 µM (inactive) in the test on M19-MEL. In addition, the GI50 in the test on SNB-78 was 15.8 µM (inactive); in the test on XF498, 11.5 µM (inactive).

For the compound `NC1=NC(Cn2nc(-c3ccccc3)c3ccccc3c2=O)=NNC(=O)N1`, the GI50 with DMS-273, in the test on HOP-18, in the test on LXFL 529, in the test on M19-MEL and with SNB-78 was > 100 µM (inactive) throughout.

Turning to `O=C1C[C@@H]2CCCC[C@@H]2C12SCCS2`, the GI50 is 89.1 µM (inactive) in the test with DMS-114; > 100 µM (inactive) with DMS-273; > 100 µM (inactive) with LXFL 529; > 100 µM (inactive) in the test with M19-MEL; > 100 µM (inactive) with RXF 631; > 100 µM (inactive) with SNB-78. Also, the GI50 in the test with XF498 is 58.1 µM (inactive).

As for `Cc1cc(O)nc(CNC(=O)c2cccc3ccccc23)n1`, the GI50 with DMS-273, with KM-20L2, in the test with LXFL 529, in the test with M19-MEL, in the test with SNB-78 and with XF498 was > 100 µM (inactive) throughout.

Take `COCC12CC(CC1=O)C1C2ON2c3ccccc3C(=O)C12c1ccccc1` (configuration not stated): the GI50 with DMS-114 is > 100 µM (inactive); with DMS-273, > 100 µM (inactive); with HOP-18, > 100 µM (inactive); in the test on KM-20L2 it was > 100 µM (inactive); with LXFL 529 it was > 100 µM (inactive); in the test on SNB-78, 68.7 µM (inactive). In the test with XF498, the GI50 is > 100 µM (inactive).
